Assay results reported in ChEMBL document CHEMBL1201862, “PubChem BioAssay data set” (2004).
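Assay format: 96-well plates, 48-hour exposure. GI50: concentration for 50% inhibition of growth.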 Active and inactive are the calls of the source. Cut-off read from the data, not from the text of the source: active = GI50 up to about 1.1 µM and inactive = higher.

Tests used:
Test in all cases: NCI tumour cell line growth inhibition, 48 h
[1] = tested on: MDA-MB-231
[2] = tested on: HT-29
[3] = tested on: NCI-H23
[4] = tested on: SK-MEL-2
[5] = tested on: SNB-75
[6] = tested on: U-251
[7] = tested on: LOX IMVI
[8] = tested on: A549
[9] = tested on: 786-0
[10] = tested on: SK-MEL-5
[11] = tested on: ACHN
[12] = tested on: SNB-19
[13] = tested on: SK-OV-3
[14] = tested on: CCRF-CEM
[15] = tested on: MDA-N
[16] = tested on: DU-145
[17] = tested on: TK-10
[18] = tested on: NCI-H226

Measured: GI50

COc1nc(C#CC2(O)CCCCC2)nc(OC)n1
inactive: [1] 3.34 µM | [2] 11.7 µM | [3] 13.7 µM | [4] 14 µM | [5] 19.4 µM | [6] 12.4 µM | [7] 2.83 µM | [8] 13.9 µM | [9] 22.9 µM | [10] 7.43 µM | [11] 8.49 µM | [12] 38.7 µM | [13] 53.6 µM | [14] 12.3 µM | [15] 10.9 µM | [16] 6.79 µM

NC(=O)NNc1nc2ccccc2c(=O)n1NC(=O)C(=O)Nc1ccc(Cl)cc1Cl
inactive: [1] > 100 µM | [2] > 100 µM | [3] > 100 µM | [4] > 100 µM | [5] > 100 µM | [17] > 100 µM | [6] > 100 µM | [7] > 100 µM | [8] > 100 µM | [18] > 100 µM | [9] > 100 µM | [10] > 100 µM | [11] > 100 µM | [12] 81.1 µM | [13] > 100 µM | [14] > 100 µM | [15] > 100 µM

CC1CC(=O)N(N(C)C)C2(C#N)C(=O)N=C(N)C12C#N (stereo not drawn)
inactive: [1] > 100 µM | [2] > 100 µM | [3] > 100 µM | [4] > 100 µM | [5] > 100 µM | [17] > 100 µM | [6] > 100 µM | [7] > 100 µM | [8] > 100 µM | [9] > 100 µM | [10] > 100 µM | [11] > 100 µM | [12] > 100 µM | [13] > 100 µM | [14] 23.2 µM | [15] > 100 µM | [16] > 100 µM

Cc1nc(C)c(N2CCN(CN)CC2)c(O)n1
inactive: [1] > 100 µM | [2] > 100 µM | [3] > 100 µM | [17] > 100 µM | [6] 56.8 µM | [7] > 100 µM | [8] > 100 µM | [18] > 100 µM | [9] 88.7 µM | [10] > 100 µM | [11] > 100 µM | [12] > 100 µM | [13] > 100 µM | [14] > 100 µM | [15] > 100 µM | [16] > 100 µM

Cc1cccc2cc3c(ccc4ccccc43)c[n+]12
inactive: [1] 47.5 µM | [2] 24.7 µM | [3] 7.6 µM | [4] 20.3 µM | [5] 6.56 µM | [17] > 100 µM | [6] 2.99 µM | [7] 50 µM | [8] 5.86 µM | [9] 18 µM | [10] 5.65 µM | [11] 65.3 µM | [12] 6.87 µM | [14] 15.5 µM | [15] 37.9 µM | [16] 64.6 µM

O=C(O)CCC(=O)OC1N=C(c2ccccc2Cl)c2cc([N+](=O)[O-])ccc2NC1=O (stereo not drawn)
inactive: [1] > 100 µM | [2] > 100 µM | [3] > 100 µM | [4] > 100 µM | [5] 38.1 µM | [17] 86.7 µM | [6] 31.5 µM | [7] 85.7 µM | [8] > 100 µM | [9] 42.1 µM | [11] 57.8 µM | [12] > 100 µM | [13] > 100 µM | [14] 26.3 µM | [15] > 100 µM | [16] > 100 µM
